This is an account of results in US12357623B2, “Method for treating a disease or condition using a pyrazole compound or formulation thereof” (Rigel Pharmaceuticals, Inc., priority 2021, dated 2025).

Series [1] is described as follows: Pharmacokinetics in cynomolgus monkeys (co-crystal and spray-dried dispersion capsules). It is filed as in vivo. Conditions: male cynomolgus monkeys (n=3/group), capsule equivalent to 25 mg compound I-1. As to the method: Two groups of male cynomolgus monkeys (n=3/group) were administered test articles in a 3-way crossover design as indicated in Table 2. The washout period between doses was 3-4 days. Test article capsules were prepared such that each capsule contained an equivalent of 25 mg of free base compound I-1. The organic stock solution of compound I-1 was prepared at a concentration of 5 mg/ml using TPGS/PEG400/PG, and was diluted with apple juice within 1 hour of dosing (PO) at 1 part stock solution to 3 parts apple juice.
FIGS. 11-14 provide graphs of the plasma concentrations obtained from administering the co-crystal formulations of compound I-1 to monkeys. And Table 3 provides pharmacokinetic (PK) data for the co-crystal formulations, including the average area under the curve (AUC) and percent bioavailability.
FIG. 19 provides PK data for one embodiment of the disclosed spray-dried formulation, and the organic/juice formulation.

Series [2] is described as follows: Rat AUC and percent bioavailability of compound I-1 after administration of potential prodrugs. Also on record: species or system Rats. The settings on record: in vivo, parent, iv 1 mg/kg, read-out: Rat AUClast of compound I-1.
The nature of series [3]: DVS isotherm of spray-dried formulation and crystalline compound I-1. It is filed as physicochemical. Conditions: 25° C.; compared with the dispersion. As to the method: FIG. 1 is a dynamic vapor sorption (DVS) plot of percent change in mass versus target relative humidity (RH), illustrating the change in mass of one embodiment of the disclosed spray-dried formulation at 25° C. under various relative humidity conditions. The plot provides two isotherms: 1 is the sorption plot, illustrating the change in mass with increasing relative humidity steps; and 2 is the desorption plot, illustrating the change in mass with decreasing relative humidity steps.
FIG. 6 is a DVS plot of percent change in mass versus target relative humidity, illustrating the change in mass of one embodiment of a crystalline sample of compound I-1 at 25° C. under various relative humidity conditions. The plot provides two isotherms: 1 is the sorption plot, illustrating the change in mass with increasing relative humidity steps; and 2 is the desorption plot, illustrating the change in mass with decreasing relative humidity steps.
FIGS. 1-10 provide structural and stability data concerning the spray-dried formulation (FIGS. 1-5) and a crystalline sample of compound I-1 (FIGS. 6-10). FIGS. 1 and 6 provide DVS isotherm plots for the spray-dried formulation and crystalline compound, respectively.

Series [4] in a line: Physical and chemical stability of salts of compound I-18. Conditions: for Area (%) of peak at RRT 1.00: main peak; for Area (%) of peak at RRT 1.17: peak corresponds to I-1 formed by hydrolysis. Type of series: physicochemical. As to the method: The physical and chemical stability of the K salt, Arginine salt, Choline salt and Tris salt were evaluated under conditions of 25° C./60% RH and 40° C./75% RH for 1 week. Each sample was added into 3 mL glass vials, sealed by parafilm with several holes, and kept under tested condition. After one week, samples was taken for XRPD and HPLC purity test.

Series [5] is described as follows: Hygroscopicity evaluation (DVS) of salts of compound I-18. It is filed as physicochemical. The settings on record: 25° C., listed as Choline salt. As to the method:
To investigate the solid form stability as a function of humidity, DVS isotherm plot of the K salt, Arginine salt, Choline salt and Tris salt were collected at 25° C. between 0 and 95% RH.

Setting [6] is: 25° C./60% RH, 1 week, listed as choline salt.
Where [7] appears, read: 25° C./60% RH/1 week, listed as Choline salt.
Setting [8] is: 40° C./75% RH, 1 week, listed as choline salt.
Where [9] appears, read: Initial, listed as choline salt.

Structures are written as SMILES. Where a name gives a salt, the structure may show the parent alone.

As to `CCO[C@H]1CC[C@H](n2cc(NC(=O)c3csc(-c4cn[nH]c4)n3)c(-c3nc(F)ccc3F)n2)CC1.O=P(O)(O)O` [Compound I-104, N-(3-(3,6-difluoropyridin-2-yl)-1-((1r, 4r)-4-ethoxycyclohexyl)-1H-pyrazol-4-yl)-2-(1H-pyrazol-4-yl)thiazole-4-carboxamide phosphate], in series [1], the “percent bioavailability (% F) of compound I-1” value came out at 7.9%.

On to `CCO[C@H]1CC[C@H](n2cc(NC(=O)c3csc(-c4cn[nH]c4)n3)c(-c3nc(F)ccc3F)n2)CC1` [Compound I-1, N-(3-(3,6-difluoropyridin-2-yl)-1-((1r, 4r)-4-ethoxycyclohexyl)-1H-pyrazol-4-yl)-2-(1H-pyrazol-4-yl)thiazole-4-carboxamide], for which the AUC(0-t) in series [2] worked out at 1050 ng·h/mL. Also, the “change in mass when exposed to higher relative humidity (DVS)” value in series [3] was “substantially smaller change in mass”.

As for `CCO[C@H]1CC[C@H](n2cc(NC(=O)c3csc(-c4cnn(C(C)OP(=O)(O)O)c4)n3)c(-c3nc(F)ccc3F)n2)CC1` (stereo partly drawn) [Compound I-111, 1-(4-(4-((3-(3,6-difluoropyridin-2-yl)-1-((1r, 4r)-4-ethoxycyclohexyl)-1H-pyrazol-4-yl)carbamoyl)thiazol-2-yl)-1H-pyrazol-1-yl)ethyl dihydrogen phosphate choline salt], in series [4] (setting [6]), the “Area (%) of peak at RRT 0.77” value is 0.04%, the “Area (%) of peak at RRT 1.35” value came to 0.10%, the “Area (%) of peak at RRT 1.45” value was found to be 0.07% and the “Area (%) of peak at RRT 1.71” value is reported as 0.05%. In addition, in series [4] (setting [6]), the “Area (%) of peak at RRT 1.73” value came out at 0.46%, the HPLC purity change result was “no HPLC purity decrease”, the “Area (%) of peak at RRT 1.00” value turned out to be 98.66% and the “Area (%) of peak at RRT 1.17” value is on record as 0.58%. In series [4] (setting [7]), the “Form change (XRPD)” value was “no form change and No”; the Purity/Initial purity amounted to 100.0%. In series [4] (setting [8]), the “Area (%) of peak at RRT 0.77” value is on record as 0.04%, the “Area (%) of peak at RRT 1.35” value is 0.14%, the “Area (%) of peak at RRT 1.45” value is reported as 0.11% and the “Area (%) of peak at RRT 1.71” value is recorded as 0.08%. In series [4] (setting [8]), the “Area (%) of peak at RRT 1.73” value is reported as 0.46%, the HPLC purity change result is on record as “a purity decrease was observed”, the “Area (%) of peak at RRT 1.00” value worked out at 97.81% and the “Area (%) of peak at RRT 1.17” value was determined as 1.31%. Further, the “Form change (XRPD)” value in series [4] (40° C./75% RH/1 week, listed as Choline salt) was “no form change and No”. In series [4] (Initial), the “Area (%) of peak at RRT 1.35” value is given as less than 0.03%. In series [4] (setting [9]), the “Area (%) of peak at RRT 0.77” value was 0.03%, the “Area (%) of peak at RRT 1.13” value is on record as 0.06%, the “Area (%) of peak at RRT 1.45” value is 0.06% and the “Area (%) of peak at RRT 1.71” value is listed as 0.06%. Moreover, in series [4] (setting [9]), the “Area (%) of peak at RRT 1.73” value was found to be 0.33%, the “Area (%) of peak at RRT 1.00” value was found to be 98.70% and the “Area (%) of peak at RRT 1.17” value was determined as 0.75%. Further, in series [4] (initial, before storage, listed as Choline salt), the Initial purity stood at 98.70 area %. Further, the “water uptake (DVS)” value in series [5] (at 70% RH) is on record as 3.66%. Also, the “water uptake (DVS)” value in series [5] (at 95% RH) came out at 32.4%.
